Measurements as given in patent publication US8563712B2, “Hydroxy-substituted gold(III) porphyrin complexes as histone deacetylase inhibitors” (The University of Hong Kong, priority 2009, dated 2013).

How the values were obtained:
[1] = tested on: MDA-MB-231; assay: Crystal violet anti-proliferative assay; assay type: cell-based, human
Experimental: (§1) Table 1). The presence of high concentrations of serum had no effects on the potencies of the drug. […] Similar results were observed when the drug exposure time was extended to 48 h. […] The antiproliferative activity of another gold(III) porphyrin complex ([Au^III(TPP)]Cl, gold-1a) in MDA-MB-231 cells was also tested. […] Apoptosis of MDA-MB-231 cells were evaluated by measuring DNA fragmentation.

[2] = tested on: MDA-MB-231 tumor xenograft; assay: Mammary MDA-MB-231 tumor growth in nude mice; assay type: in vivo
Experimental: Most of the animals remained in a tumor-free status until day 25, at which recurrence of a tumor was observed.
MDA-MB-231 cells were inoculated into the mammary fat pad of nude mice as described in Methods. […] Tumor growth (A) and body weight (B) were monitored bi-weekly. C, Kaplan-Meier estimates of the survival curves were calculated and plotted. D, At the end of experiment, tumors were collected and weighed. # and *, P<0.05 versus PET control, n=4-6.

[3] = tested on: BT474; assay: Crystal violet anti-proliferative assay; assay type: cell-based, human
Experimental: as §1

[4] = tested on: MCF7; assay: Crystal violet anti-proliferative assay; assay type: cell-based, human
Experimental: as §1

[5] = tested on: SKBR3; assay: Crystal violet anti-proliferative assay; assay type: cell-based, human
Experimental: as §1

[6] = tested on: T47D; assay: Crystal violet anti-proliferative assay; assay type: cell-based, human
Experimental: as §1

[7] = tested on: human breast carcinoma cells (BT474, MCF-7, T47D, MDA-MB-231, SKBR3); assay: Crystal violet assay, statements on the whole panel; assay type: cell-based; conditions: five breast carcinoma cell lines
Experimental: as §1

[8] = tested on: β-catenin; assay: β-catenin protein level, nuclear activity, phosphorylation and ubiquitination; assay type: cell-based, human; conditions: MDA-MB-231 cells
Excerpt: Aberrant activation of the Wnt/β-catenin signalling plays a key role in the development of many human cancer diseases. Intracellular accumulation of β-catenin protein has been observed in a large portion of human breast tumors. […] On the contrary, cisplatin had no influence on both the protein levels and nuclear activities of β-catenin. In the absence of a Wnt signal, β-catenin is phosphorylated by glycogen synthase kinase-3beta, which facilitates the subsequent ubiquitination and proteasome degradation.

[9] = tested on: acetylated histone H4; assay: ChIP-PCR of acetylated histone H4 at promoter regions; assay type: cell-based, human; conditions: MDA-MB-231, 24 hours
Experimental: To further confirm these unexpected observations, ChIP-PCR was performed to quantify the acetylated histone H4 levels at the promoter regions of the above genes. […] Similar levels of acetylated histone H4 were only observed at 24 hours after treatment.
MDA-MB-231 cells were treated with different drugs for 24 hours. ChiP-PCR was performed for analyzing the levels of acetylated histone H4 at the promoter regions of CTNNB1, WIF1, WNT5B, WNT1, WISP1 and ESR1, using antibody recognizing histone H4 acetylated at lysines 5, 8, 12, and 16. Bar charts represented the quantitative results by real time PCR analysis after normalization against the input DNA. Representative agarose gel images were shown at the bottom. […] Equal protein loading was confirmed by Amido black staining. *, P<0.01 versus vehicle control, n=3.

[10] = tested on: histone H4 acetylation; assay: Western blotting of global acetylated histone H4; assay type: cell-based, human; conditions: MDA-MB-231, six and 24 hours
[11] = intraductal 15 mg/kg, end of experiment

[Au^III(TPP)]Cl [gold-1a]
less effective than gold-2a (growth inhibition curves) ([1]; MDA-MB-231 cells, non-linear regression): ~1000 fold
inhibition of breast tumor growth ([2]; sub-lethal concentrations): no inhibition

N.N.[Cl][Pt][Cl] [cisplatin]
IC50 ([3]; 24 hours, 0.5% FBS): 49 ± 0.5 µM
IC50 ([3]; 24 hours, 10% FBS): 45.1 ± 8.2 µM
IC50 ([3]; 48 hours, 0.5% FBS): 1.6 ± 0.53 µM
IC50 ([3]; 48 hours, 10% FBS): 2.89 ± 0.9 µM
IC50 ([4]; 24 hours, 0.5% FBS): 14.3 ± 1.46 µM
IC50 ([4]; 24 hours, 10% FBS): 20.1 ± 4.92 µM
IC50 ([4]; 48 hours, 0.5% FBS): 10.1 ± 1.47 µM
IC50 ([4]; 48 hours, 10% FBS): 15.9 ± 2.33 µM
IC50 ([1]; 24 hours, 0.5% FBS): 7.37 ± 1.19 µM
IC50 ([1]; 24 hours, 10% FBS): 21 ± 11.2 µM
IC50 ([1]; 48 hours, 0.5% FBS): 6.52 ± 0.48 µM
IC50 ([1]; 48 hours, 10% FBS): 18.4 ± 3.42 µM
IC50 ([5]; 24 hours, 0.5% FBS): 65.9 ± 25.5 µM
IC50 ([5]; 24 hours, 10% FBS): 76.3 ± 33.8 µM
IC50 ([5]; 48 hours, 0.5% FBS): 33.9 ± 11 µM
IC50 ([5]; 48 hours, 10% FBS): 41 ± 7.91 µM
IC50 ([6]; 24 hours, 0.5% FBS): 66.5 ± 12.4 µM
IC50 ([6]; 24 hours, 10% FBS): 99.4 ± 5.71 µM
IC50 ([6]; 48 hours, 0.5% FBS): 7.76 ± 5.54 µM
IC50 ([6]; 48 hours, 10% FBS): 6.69 ± 3.14 µM
IC50 values higher when compared to gold-2a [7]: 100-3000 times
animals died ([2]; after two intraductal injections): ~40%
average tumor weights [2, 11]: 0.42 g
tumor weight decreased compared to control group [2, 11]: 34%
rates of tumor growth compared to gold-2a ([2]; intraductal, same dosage (15 mg/kg)): attenuated the rates of tumor growth to a much lesser degree
nuclear transcriptional activities of β-catenin [8]: no influence
protein levels of β-catenin ([8]; from four hours, 0.5% and 10% FBS): no influence

CC(/C=C/C(=O)NO)=C\[C@@H](C)C(=O)c1ccc(N(C)C)cc1 [TSA, trichostatin A]
acetylated histone H4 at CTNNB1 promoter [9]: not significantly altered
acetylated histone H4 at ESR1 promoter [9]: increased
acetylated histone H4 at WIF1 promoter [9]: no significant effects
acetylated histone H4 at WISP1 promoter [9]: not significantly altered
acetylated histone H4 at WNT1 promoter [9]: no significant effects
acetylated histone H4 at WNT5B promoter [9]: no significant effects
global histone H4 acetylation [10]: significant induction
